Data published in patent publication US20240335431A1, “1-H-PYRROLO[2,3-c]PYRIDINE COMPOUNDS” (Acerta Pharma B.V., priority 2023, published 2024).
pIC50: −log10 of the molar value.

Assays:
[1] = molecular target: hERG (Homo sapiens (Human), UniProt Q12809); assay: hERG assay 1 (standard), SyncroPatch 384PE; assay type: cell-based; conditions: CHO cells, room temperature, up to 40 uM
Method in brief: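 Automated patch clamp on hERG-expressing CHO-K1 cells at room temperature, +60/−40 mV protocol every 15 s. Six-point cumulative concentrations 139 nM to 40 uM (0.33% DMSO final); IC50 from one-site fit of % inhibition. Wells required ≥30 MegaOhm seal, current >0.2 nA, Z prime >0.4.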

[2] = system: MOLM-13 cells; assay: Proliferation assay, MOLM-13 (CellTiter-Glo, 7 days); assay type: cell-based, human; conditions: Homo sapiens, MOLM-13, 168 h
Method in brief: (§1)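 Cells were seeded at line-specific low densities for linear growth, exposed to 3.16-fold serial compound dilutions at 0.1% DMSO, and incubated 7 days at 37 °C, 5% CO2. Viability was read by CellTiter-Glo 2.0 luminescence; IC50 came from one-site fits of % inhibition, normalized between DMSO-treated cells (100%) and a day-0 plate (0%).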

[3] = Human liver microsomes (HLMs) intrinsic clearance assay; assay type: in vitro ADME; conditions: human, microsomes, pH 7.4, HLM CLint
[4] = system: MV4;11 cells; assay: Proliferation assay, MV4;11 (CellTiter-Glo, 7 days); assay type: cell-based, human; conditions: Homo sapiens, MV4-11, 168 h, read-out: MV-4-11 IC50
Method in brief: as §1

Chain of hERG (Q12809 whole entry): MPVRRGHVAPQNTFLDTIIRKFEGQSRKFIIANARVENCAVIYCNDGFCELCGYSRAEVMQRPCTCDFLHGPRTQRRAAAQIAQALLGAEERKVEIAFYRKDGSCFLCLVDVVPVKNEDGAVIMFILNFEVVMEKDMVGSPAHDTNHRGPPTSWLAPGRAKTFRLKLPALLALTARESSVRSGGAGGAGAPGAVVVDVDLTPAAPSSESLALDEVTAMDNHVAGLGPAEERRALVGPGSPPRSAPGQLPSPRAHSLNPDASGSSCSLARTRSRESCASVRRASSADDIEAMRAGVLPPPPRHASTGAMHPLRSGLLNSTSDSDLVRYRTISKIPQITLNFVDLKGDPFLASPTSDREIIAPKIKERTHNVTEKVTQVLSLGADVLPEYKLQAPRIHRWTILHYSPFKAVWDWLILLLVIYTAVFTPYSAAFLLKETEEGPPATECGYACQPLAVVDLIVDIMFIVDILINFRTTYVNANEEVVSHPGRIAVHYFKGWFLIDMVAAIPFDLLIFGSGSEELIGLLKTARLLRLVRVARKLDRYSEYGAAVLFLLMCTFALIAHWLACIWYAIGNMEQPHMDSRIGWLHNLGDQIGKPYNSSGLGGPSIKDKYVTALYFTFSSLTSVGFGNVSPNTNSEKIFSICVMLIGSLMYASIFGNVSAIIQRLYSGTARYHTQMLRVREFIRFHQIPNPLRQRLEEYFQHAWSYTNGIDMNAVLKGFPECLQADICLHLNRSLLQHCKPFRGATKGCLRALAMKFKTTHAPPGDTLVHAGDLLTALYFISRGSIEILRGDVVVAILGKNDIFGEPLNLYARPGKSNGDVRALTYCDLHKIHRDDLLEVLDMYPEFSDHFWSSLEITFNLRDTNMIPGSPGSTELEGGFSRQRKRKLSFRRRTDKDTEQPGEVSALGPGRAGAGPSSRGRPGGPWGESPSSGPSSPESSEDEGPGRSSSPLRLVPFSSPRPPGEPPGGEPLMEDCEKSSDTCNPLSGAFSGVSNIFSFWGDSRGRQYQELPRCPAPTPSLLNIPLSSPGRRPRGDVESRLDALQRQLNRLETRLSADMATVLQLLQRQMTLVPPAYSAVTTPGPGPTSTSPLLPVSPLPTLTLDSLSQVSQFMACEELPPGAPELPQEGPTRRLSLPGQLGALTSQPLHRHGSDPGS

SMILES	pIC50 [1]	pIC50 [2]	microsomal CLint at 1 µM [3]	pIC50 [4]
CC(C)n1nccc1-c1cc(F)ccc1-n1cc(C(=O)C2CCN(C(=O)[C@H]3N[C@@H]4CC[C@H]3C4)CC2)c2ccncc21 [Example 36, (1-((1R,3S,4S)-2-Azabicyclo[2.2.1]heptane-3-carbonyl)piperidin-4-yl)(1-(4-fluoro-2-(1-isopropyl-1H-pyrazol-5-yl)phenyl)-1H-pyrrolo[2,3-c]pyridin-3-yl)methanone]	< 4.40	7.22	58 µL/min/mg	7.37
CC(C)N(C(=O)c1cc(F)ccc1-n1cc(C(=O)[C@H]2CCN(C[C@H]3CC[C@H](NS(C)(=O)=O)CC3)C2)c2ccncc21)C(C)C [Example 1, 5-Fluoro-N,N-diisopropyl-2-(3-((S)-1-(((1r,4S)-4-(methylsulfonamido)-cyclohexyl)methyl)pyrrolidine-3-carbonyl)-1H-pyrrolo[2,3-c]pyridin-1-yl)benzamide]	5.00	6.83	178 µL/min/mg	6.78
CC(C)c1ncncc1-c1cc(F)ccc1-n1cc(C(=O)C2CCN(C(=O)[C@H]3N[C@@H]4CC[C@H]3C4)CC2)c2ccncc21 [Example 37, (1-((1R,3S,4S)-2-Azabicyclo[2.2.1]heptane-3-carbonyl)piperidin-4-yl)(1-(4-fluoro-2-(4-isopropylpyrimidin-5-yl)phenyl)-1H-pyrrolo[2,3-c]pyridin-3-yl)methanone]	< 4.40	7.17	52 µL/min/mg	7.47
Cc1c(C(=O)C2CCN(C(=O)[C@H]3NC[C@@H]4C[C@@H]43)CC2)c2ccncc2n1-c1ccc(F)cc1-c1cnccc1C(C)C [Example 54, (1-((1S,2S,5R)-3-Azabicyclo[3.1.0]hexane-2-carbonyl)piperidin-4-yl)(1-(4-fluoro-2-(4-isopropylpyridin-3-yl)phenyl)-2-methyl-1H-pyrrolo[2,3-c]pyridin-3-yl)methanone]	4.88	7.31	73 µL/min/mg	7.40
CC(C)N(C(=O)c1cc(F)ccc1-n1cc(C(=O)[C@H]2CCN(C(=O)[C@H]3N[C@@H]4CC[C@H]3C4)C2)c2ccncc21)C(C)C [Example 2, 2-(3-((S)-1-((1R,3S,4S)-2-Azabicyclo[2.2.1]heptane-3-carbonyl)pyrrolidine-3-carbonyl)-1H-pyrrolo[2,3-c]pyridin-1-yl)-5-fluoro-N,N-diisopropylbenzamide]	< 4.40	6.98	43 µL/min/mg	7.01
